{
  "source": "patent US11174269B2",
  "about": "“Method for producing 1,2,4,5-cyclohexanetetracarboxylic dianhydride” (MITSUBISHI GAS CHEMICAL COMPANY, INC., priority 2017, dated 2021)",
  "assay": "Saturation solubility of 1,2,4,5-cyclohexanetetracarboxylic acid in water",
  "type": "physicochemical",
  "text": "Here, the saturation solubility of 1,2,4,5-cyclohexanetetracarboxylic acid in water is as follows.",
  "data": [
    {"smiles": "O=C(O)C1CC(C(=O)O)C(C(=O)O)CC1C(=O)O", "note": "(stereo not drawn) [1,2,4,5-cyclohexanetetracarboxylic acid]", "values": [
      {"measurement": "Saturation solubility (concentration of a saturated aqueous solution)", "setting": "88.2 °C", "value": 29.6, "unit": "% by mass"},
      {"measurement": "Saturation solubility (concentration of a saturated aqueous solution)", "setting": "98.3 °C", "value": 33.1, "unit": "% by mass"},
      {"measurement": "Saturation solubility (concentration of a saturated aqueous solution)", "setting": "100 °C", "value": 33.7, "unit": "% by mass"}
    ]}
  ]
}
